Measurements as given in ChEMBL document CHEMBL1156829 (Proc Natl Acad Sci U S A, 2008).

Key:
[1] = test system: Plasmodium falciparum; assay: NOVARTIS: Inhibition of Plasmodium falciparum W2 (drug-resistant) proliferation in erythrocyte-based infection assay; format: functional, organism-based; settings: Plasmodium falciparum, W2; read-out: EC50
[2] = test system: Plasmodium falciparum; assay: NOVARTIS: Inhibition of Plasmodium falciparum 3D7 (drug-susceptible) proliferation in erythrocyte-based infection assay; format: functional, organism-based; settings: Plasmodium falciparum, 3D7
[3] = NOVARTIS: Cytotoxicity against human hepatocellular carcinoma cell line (Huh7); format: toxicity, cell-based, Huh-7; settings: Huh7 cells (hepatocellular carcinoma cell line)

CC1CC(C)CN(CCCNc2ccc(C(=O)Nc3ccc(C(F)(F)F)cc3)cc2[N+](=O)[O-])C1 (configuration not stated)
EC50 [1]: 0.401 µM | EC50 [2]: 0.119 µM | CC50 [3]: > 100 µM

OC1=C2C(=Nc3ccccc3SC2c2ccccc2)c2ccccc21 (configuration not stated)
EC50 [1]: 0.112 µM | EC50 [2]: 0.0467 µM | CC50 [3]: 27.1 µM

Cc1ccc(NC2=C(N3CCCCC3)C(=O)c3ccccc3C2=O)cc1
EC50 [1]: 0.0775 µM | EC50 [2]: 0.131 µM | CC50 [3]: 18.5 µM

O=C(NNc1ccccc1F)C1CCC1
EC50 [1]: 0.0406 µM | EC50 [2]: 0.49 µM | CC50 [3]: > 10 µM

Clc1ccc(-c2c[n+](Cc3ccccc3Cl)c3n2CCC3)cc1
EC50 [1]: 0.384 µM | EC50 [2]: 0.784 µM | CC50 [3]: > 87 µM

CCOC(=O)c1c(NC(=O)C(C)Sc2nnc(CNC(=O)c3ccco3)n2-c2cccc(Cl)c2)sc2c1CCCC2 (configuration not stated)
EC50 [1]: 0.424 µM | EC50 [2]: > 12.5 µM | CC50 [3]: > 100 µM

c1ccc(-c2csc(Nc3nc4cc5c(cc4s3)OCO5)n2)nc1
EC50 [1]: 0.417 µM | EC50 [2]: 0.65 µM | CC50 [3]: > 100 µM

Cc1ccc(N2C(N)=NC(N)=NC2(C)C)cc1
EC50 [1]: 0.43 µM | EC50 [2]: 0.0193 µM | CC50 [3]: > 100 µM

CCC1(C)CC(CCNCc2ccccc2O)(c2ccccc2OC)CCO1 (configuration not stated)
EC50 [1]: 0.0961 µM | EC50 [2]: 0.348 µM | CC50 [3]: 23.9 µM

CCOC(=O)c1[nH]c2ccc(C)cc2c1N=NN(C)C
EC50 [1]: 0.115 µM | EC50 [2]: 0.181 µM | CC50 [3]: 26.3 µM

CCCCCCCC[n+]1c(C)n(CC)c2ccc(Cl)cc21
EC50 [1]: 0.239 µM | EC50 [2]: 0.139 µM | CC50 [3]: 54.9 µM

O=C(CC(=O)N1CCOCC1)Nc1ccc2nc3n(c(=O)c2c1)CCCCC3
EC50 [1]: 0.432 µM | EC50 [2]: > 10 µM | CC50 [3]: > 100 µM

c1ccc(-c2ccnc3c2ccc2c(-c4ccccc4)ccnc23)cc1
EC50 [1]: 0.43 µM | EC50 [2]: 0.329 µM | CC50 [3]: > 100 µM

CCCNC(=O)c1ccc(OC2CCN(CC3CCCCC3)CC2)c(Cl)c1
EC50 [1]: 0.181 µM | EC50 [2]: 0.287 µM | CC50 [3]: 42.4 µM

CCOC(=O)c1cnc2ccccc2c1NCCCN(C)C
EC50 [1]: 0.222 µM | EC50 [2]: 0.198 µM | CC50 [3]: 52.1 µM

COc1ccc(NC(C)=C2C(=O)c3ccccc3C2=O)c(OC)c1
EC50 [1]: 0.426 µM | EC50 [2]: 1.27 µM | CC50 [3]: > 100 µM

COc1ccccc1C(=O)ON=C(N)Cc1cccc2ccccc12
EC50 [1]: 0.212 µM | EC50 [2]: 0.352 µM | CC50 [3]: 49.6 µM

c1ccc(Cn2c(N=NNc3nc4ccccc4n3Cc3ccccc3)nc3ccccc32)cc1
EC50 [1]: 0.0819 µM | EC50 [2]: 0.0854 µM | CC50 [3]: 19.2 µM

O=C(NCc1ccco1)c1ccc(OC2CCN(Cc3ccncc3)CC2)c(Cl)c1
EC50 [1]: 0.427 µM | EC50 [2]: 0.683 µM | CC50 [3]: > 100 µM

COC(=O)c1ccc2c(=O)n(Cc3ccc4c(c3)OCO4)c(SCC(=O)n3nc(C)cc3N)nc2c1
EC50 [1]: 0.0412 µM | EC50 [2]: 0.144 µM | CC50 [3]: > 10 µM

Cc1c(C#N)c2ccccc2n1CC(=O)NCCc1ccccc1
EC50 [1]: 0.411 µM | EC50 [2]: 0.398 µM | CC50 [3]: > 100 µM

C=CCC1C=C(Cc2ccccc2)CC(CC=C)N1 (configuration not stated)
EC50 [1]: 0.188 µM | EC50 [2]: 4.31 µM | CC50 [3]: 46 µM

COc1ccccc1C(=O)Oc1ccccc1-c1nc2ccccn2c1NC(C)(C)CC(C)(C)C
EC50 [1]: 0.0408 µM | EC50 [2]: 1.58 µM | CC50 [3]: > 10 µM

CC(C)CCNCC(O)Cn1c2ccccc2c2ccccc21 (configuration not stated)
EC50 [1]: 0.0323 µM | EC50 [2]: 0.201 µM | CC50 [3]: 8.06 µM

CC1=C(C(=O)OC(C)C)C(c2ccc(Br)cc2)C2=C(CC(c3ccc(Cl)cc3)CC2=O)N1 (configuration not stated)
EC50 [1]: 0.404 µM | EC50 [2]: 1.44 µM | CC50 [3]: > 100 µM

COc1ccc(Nc2nc(NN=Cc3cccc([N+](=O)[O-])c3)nc(Nc3ccc([N+](=O)[O-])cc3)n2)cc1
EC50 [1]: 0.404 µM | EC50 [2]: 0.406 µM | CC50 [3]: > 100 µM

O=c1c2ccccc2[nH]c2ccc(I)cc12
EC50 [1]: 0.418 µM | EC50 [2]: 0.393 µM | CC50 [3]: > 100 µM

CCCCNC1=CC(=O)C(=O)c2ccccc21
EC50 [1]: 0.324 µM | EC50 [2]: 0.481 µM | CC50 [3]: > 77.9 µM

CCCCc1ccc(C(=O)N(C)CCCNc2ccnc3cc(Cl)ccc23)cc1
EC50 [1]: 0.0416 µM | EC50 [2]: 0.427 µM | CC50 [3]: > 10 µM

O=C(c1ccc([N+](=O)[O-])cc1)N1CCC(c2nc(O)c3nnn(Cc4c(F)cccc4Cl)c3n2)CC1
EC50 [1]: 0.401 µM | EC50 [2]: 0.21 µM | CC50 [3]: > 100 µM

COc1ccc(NC2=C(c3ccc(OC)cc3)C(=O)c3ccccc32)cc1
EC50 [1]: 0.423 µM | EC50 [2]: 0.437 µM | CC50 [3]: > 100 µM

CCCc1nc2ccc(NC(=O)c3ccco3)cc2c(=O)n1Cc1ccc(-c2ccccc2)cc1
EC50 [1]: 0.422 µM | EC50 [2]: 0.262 µM | CC50 [3]: > 100 µM

CCOC(=O)c1ccc(NC2=C(N3CCCCC3)C(=O)c3ccccc3C2=O)cc1
EC50 [1]: 0.334 µM | EC50 [2]: 0.243 µM | CC50 [3]: > 80.5 µM

O=C(NCCc1ccccc1)c1cnc(NCCCN2CCCC2)nc1NCC1CCCCC1
EC50 [1]: > 0.0425 µM | EC50 [2]: 0.603 µM | CC50 [3]: > 10 µM

CCOC(=O)c1c(S(=O)(=O)Nc2ccc(C(C)(C)C)cc2)c(-c2ccccc2)n(-c2ccccc2)c1C
EC50 [1]: 0.425 µM | EC50 [2]: 0.696 µM | CC50 [3]: > 100 µM

CCC(CC)CN1CCC(O)(c2ccc3oc(C(=O)Nc4ccc(OC)c(OC)c4)cc3c2)CC1
EC50 [1]: 0.36 µM | EC50 [2]: 0.344 µM | CC50 [3]: > 85.9 µM

OC(CN1CCN(Cc2ccccc2)CC1)Cn1c2ccc(Cl)cc2c2cc(Cl)ccc21 (configuration not stated)
EC50 [1]: 0.0657 µM | EC50 [2]: 0.218 µM | CC50 [3]: 15.7 µM

OC(CN1CCN(CC=Cc2ccccc2)CC1)Cn1c2ccc(Cl)cc2c2cc(Cl)ccc21 (configuration not stated)
EC50 [1]: 0.075 µM | EC50 [2]: 0.181 µM | CC50 [3]: 17.9 µM

CCOC(=O)c1c(C)[nH]c(C)c1S(=O)(=O)N1CCCC(C(=O)N2CCN(c3cc(C)ccc3C)CC2)C1 (configuration not stated)
EC50 [1]: 0.367 µM | EC50 [2]: 0.231 µM | CC50 [3]: > 82.3 µM

O=C1c2ccccc2C2=Nc3ccccc3SC(c3cccc(F)c3)C12 (configuration not stated)
EC50 [1]: 0.135 µM | EC50 [2]: 0.0867 µM | CC50 [3]: 30.3 µM

CC(C)(C)CC(C)(C)Nc1c(-c2ccccc2OC(=O)c2cccc(Cl)c2)nc2ccccn12
EC50 [1]: 0.0416 µM | EC50 [2]: 0.629 µM | CC50 [3]: > 10 µM

COc1ccc(OC)c(-c2ccc(C(=O)N3CCN(CC=Cc4ccccc4)CC3)c(N(C)C)n2)c1
EC50 [1]: 0.145 µM | EC50 [2]: 0.0946 µM | CC50 [3]: 32.8 µM

C=CC1CN2CCC1CC2C(OC(=O)c1ccco1)c1ccnc2ccccc12 (configuration not stated)
EC50 [1]: 0.181 µM | EC50 [2]: 0.0357 µM | CC50 [3]: 41.8 µM

COc1cc(C2C3=C(CC(C)(C)CC3=O)Nc3ccccc3N2C(=O)C(C)C)cc(OC)c1OC (configuration not stated)
EC50 [1]: 0.0407 µM | EC50 [2]: > 1.25 µM | CC50 [3]: > 10 µM

CC(NC(=S)N(Cc1ccco1)Cc1cc2cc3c(cc2[nH]c1=O)OCO3)c1ccccc1 (configuration not stated)
EC50 [1]: 0.405 µM | EC50 [2]: 1.37 µM | CC50 [3]: > 100 µM

CCC12C(=O)C(CC)(C(c3ccccc3)=C1c1ccccc1)C1C(=O)N(c3cccc(C(F)(F)F)c3)C(=O)C12 (configuration not stated)
EC50 [1]: 0.401 µM | EC50 [2]: 2.41 µM | CC50 [3]: > 100 µM

CCCCNC(=O)C(c1cccc(OC)c1)N1C(=O)c2cc(OCCc3cccc(OC)c3)ccc2NC(=O)C1CO (configuration not stated)
EC50 [1]: 0.0429 µM | EC50 [2]: 0.11 µM | CC50 [3]: > 10 µM

CCCc1c(C)nc2ccccc2c1O
EC50 [1]: 0.429 µM | EC50 [2]: 0.63 µM | CC50 [3]: > 100 µM

S=C(Nc1ccccc1)N1CCCN(c2nc3ccc(Cl)cc3s2)CC1
EC50 [1]: 0.37 µM | EC50 [2]: 0.506 µM | CC50 [3]: > 86.9 µM

COc1cccc(CCN2Cc3ccc(C(=O)NC(C)C)cc3N=C2c2cccnc2)c1
EC50 [1]: > 0.0423 µM | EC50 [2]: 0.0171 µM | CC50 [3]: > 10 µM

COc1cc2nc(NC(=N)N)nc(C)c2cc1OC
EC50 [1]: 0.0441 µM | EC50 [2]: 0.0244 µM | CC50 [3]: > 10 µM

O=C(c1ccccc1)N1CCN(c2ccccc2NC(=O)C(Cl)(Cl)Cl)CC1
EC50 [1]: 0.425 µM | EC50 [2]: 0.538 µM | CC50 [3]: > 100 µM

Nc1nonc1-n1nnc(C(=O)NN=Cc2cccc(Cl)c2)c1-c1ccccc1
EC50 [1]: 0.441 µM | EC50 [2]: 0.427 µM | CC50 [3]: > 100 µM

COc1ccc(-c2c[n+](CC(=O)c3ccc([N+](=O)[O-])cc3)c3n2CCC3)cc1
EC50 [1]: 0.426 µM | EC50 [2]: 0.518 µM | CC50 [3]: > 100 µM
